Assay results: patent US10952433B2, “Solutions for enhancing the effectiveness of insecticides and fungicides on living plants and related methods” (priority 2015, dated 2021)
Read-outs that look alike come from different tables or passages of the source.

Legend:
[1] = test system: lepidopteran larvae: cabbage loopers (Trichoplusia ni) and beet armyworms (Spodoptera exigua); format: in vivo; conditions: plants
Method: In a first group of tests, the results of which are shown in Table 7 (pages 22-24), romaine lettuce plants two to three inches in height were exposed to 10 milliliters of solution applied to each plant using a low volume trigger spray. With respect to containers 0-7, ten plants were employed per container, nine were treated and one was an internal control. In containers M-H, ten plants per container were used, five were treated and 5 were internal controls. Each container was infested with 30 lepidopteran larvae between the 5th and 6th instar development. Fifteen cabbage loopers (Trichoplusia ni) and 15 beet armyworms (Spodoptera exigua) were used to infest the romaine lettuce plants. Visual evaluations for the average percentage total surface area damage were taken 24 hours after infestation. Percentage damage was evaluated by 5% increments for total damage across all plant leaves.
As indicated in the first column of Table 7, in some tests, no insecticide was employed and there were two controls; a no water control and a no dye control. A wide variety of insecticides selected from the following group were tested: Chlorantranilopril, Acephate, Methoxyfenozide, Spinosad, Permethrin, and Indoxacarb. The product concentration is shown in PPM in column 2. Column 3 is divided into two subunits, the first being CO3 and the second, PO4. In all instances in columns 3, 4 and 5 and their sub-columns, the concentrations used were 200:1. The fourth column employed amine oxide, but no buffer. […] Two sub-columns each are represented for CO3 and PO4. The final column is a reading of the Percent Lepidopteran Damage to the romaine lettuce plants after 24 hours.
In addition to testing the buffered amine system of the present invention with the two amine oxides identified as CO3 and PO4 and their use with 12 carbon length and a mixture of 12 and 18 designated 1218 for comparative data purposes various differences were created in the testing. Some of the tests were performed with (a) no insecticide along with (b) no amine oxide for CO3 and PO4 and (c) with no buffer, but with amine oxide. Also, tests were run using no insecticide and no water control with no foliar application being made. Tests with no insecticide and no dye control employed foliar application of water only. The tests were conducted with all of the testing on the buffer alone, the amine oxide alone and the buffered amine oxide system of the present invention in the concentration of 200:1.

[2] = test system: lepidopteran larvae: cabbage loopers (Trichoplusia ni) and beet armyworms (Spodoptera exigua); format: in vivo; conditions: leaf discs
Source text: A second series of tests involved romaine lettuce discs approximately ⅝ inch in diameter. (L. sativa). They were dipped in the treatment solution one second per disc. This test involved the 5/5 configuration, i.e., 5 treated and 5 untreated. The infestation involved […] lepidopteran larvae at the 3rd to 4th instar development per container: four cabbage loopers (Trichoplusia ni), and four beet armyworms (Spodoptera exigua) were employed. The test containers were placed in a dark humidity cabinet at 15° C. and 80% relative humidity. Visual evaluations of the average percent damage were taken at 24, 48 and 72 hours after the initiation of infestation. Damage was evaluated in 5% increments based on total disc area.
In the tests reported in Table 8 pages 29-32), romaine lettuce leaf discs ⅝″ in diameter (L. sativa) were dipped in the treatment solution for about one second per disc. Infestation was provided by eight lepidopteran larvae at the 3rd to 4th instar development per container. Four cabbage loopers (Trichoplusia ni) and four beet armyworms (Spodoptera exigua) were employed in infestation. The containers were placed in a dark humidity cabinet at 15° C. and 80% relative humidity. Visual observations of the average percent damage was taken at 24, 48 and 72 hours after infestation. Damage evaluation was by 5% increments over the total disc area.
In the tests results provided in Table 8, the identity and concentrations of the insecticide was identical to the tests results reported in Table 7. The concentration of 200:1 was employed for the no amino oxide, no buffer and buffered amine oxide system. This series of tests, however, reported how the percent damage changed with time at the respective 24, 48 and 72 hour intervals.

[3] = insecticide + CO3 buffer 200:1, no amine oxide, PPM: Chlorantranilopril 60, Acephate 70, Methoxyfenozide 100, Spinosad 30, Permethrin 10, Indoxacarb 50
[4] = insecticide + PO4 buffer 200:1, no amine oxide, PPM: Chlorantranilopril 60, Acephate 70, Methoxyfenozide 100, Spinosad 30, Permethrin 10, Indoxacarb 50
[5] = insecticide + amine oxide 12, no buffer, 200:1, PPM: Chlorantranilopril 60, Acephate 70, Methoxyfenozide 100, Spinosad 30, Permethrin 10, Indoxacarb 50
[6] = insecticide + amine oxide 1218, no buffer, 200:1, PPM: Chlorantranilopril 60, Acephate 70, Methoxyfenozide 100, Spinosad 30, Permethrin 10, Indoxacarb 50
[7] = insecticide + buffered amine oxide system CO3, 12, 200:1, PPM: Chlorantranilopril 60, Acephate 70, Methoxyfenozide 100, Spinosad 30, Permethrin 10, Indoxacarb 50
[8] = insecticide + buffered amine oxide system CO3, 1218, 200:1, PPM: Chlorantranilopril 60, Acephate 70, Methoxyfenozide 100, Spinosad 30, Permethrin 10, Indoxacarb 50
[9] = insecticide + buffered amine oxide system PO4, 12, 200:1, PPM: Chlorantranilopril 60, Acephate 70, Methoxyfenozide 100, Spinosad 30, Permethrin 10, Indoxacarb 50
[10] = insecticide + buffered amine oxide system PO4, 1218, 200:1, PPM: Chlorantranilopril 60, Acephate 70, Methoxyfenozide 100, Spinosad 30, Permethrin 10, Indoxacarb 50
[11] = insecticide alone, highest, PPM: Chlorantranilopril 120, Acephate 140, Methoxyfenozide 200, Spinosad 60, Permethrin 20, Indoxacarb 100
[12] = insecticide alone, increased, PPM: Chlorantranilopril 90, Acephate 105, Methoxyfenozide 150, Spinosad 45, Permethrin 15, Indoxacarb 75
[13] = insecticide alone, PPM: Chlorantranilopril 60, Acephate 70, Methoxyfenozide 100, Spinosad 30, Permethrin 10, Indoxacarb 50

CNC(=O)c1cc(Cl)cc(C)c1NC(=O)c1cc(Br)nn1-c1ncccc1Cl [Chlorantranilopril]
Percent Lepidopteran Damage to Romaine Lettuce 24 hr [1, 3]: 13.5%
Percent Lepidopteran Damage to Romaine Lettuce 24 hr [1, 4]: 9.0%
Percent Lepidopteran Damage to Romaine Lettuce 24 hr [1, 5]: 9.0%
Percent Lepidopteran Damage to Romaine Lettuce 24 hr [1, 6]: 5.5%
Percent Lepidopteran Damage to Romaine Lettuce 24 hr [1, 7]: 2.5%
Percent Lepidopteran Damage to Romaine Lettuce 24 hr [1, 8]: 2.5%
Percent Lepidopteran Damage to Romaine Lettuce 24 hr [1, 9]: 4.0%
Percent Lepidopteran Damage to Romaine Lettuce 24 hr [1, 10]: 0.0%
Percent Lepidopteran Damage to Romaine Lettuce 24 hr [1, 11]: 8.5%
Percent Lepidopteran Damage to Romaine Lettuce 24 hr [1, 12]: 8.2%
Percent Lepidopteran Damage to Romaine Lettuce 24 hr [1, 13]: 10.5%
Percent Lepidopteran Damage to Romaine Lettuce 24 hr [2, 3]: 13.0%
Percent Lepidopteran Damage to Romaine Lettuce 24 hr [2, 4]: 14.0%
Percent Lepidopteran Damage to Romaine Lettuce 24 hr [2, 5]: 4.5%
Percent Lepidopteran Damage to Romaine Lettuce 24 hr [2, 6]: 10.5%
Percent Lepidopteran Damage to Romaine Lettuce 24 hr [2, 7]: 3.0%
Percent Lepidopteran Damage to Romaine Lettuce 24 hr [2, 8]: 1.0%
Percent Lepidopteran Damage to Romaine Lettuce 24 hr [2, 9]: 4.5%
Percent Lepidopteran Damage to Romaine Lettuce 24 hr [2, 10]: 6.5%
Percent Lepidopteran Damage to Romaine Lettuce 24 hr [2, 11]: 9.5%
Percent Lepidopteran Damage to Romaine Lettuce 24 hr [2, 12]: 7.5%
Percent Lepidopteran Damage to Romaine Lettuce 24 hr [2, 13]: 4.5%
Percent Lepidopteran Damage to Romaine Lettuce 48 hr [2, 3]: 17.5%
Percent Lepidopteran Damage to Romaine Lettuce 48 hr [2, 4]: 22.5%
Percent Lepidopteran Damage to Romaine Lettuce 48 hr [2, 5]: 8.0%
Percent Lepidopteran Damage to Romaine Lettuce 48 hr [2, 6]: 17.5%
Percent Lepidopteran Damage to Romaine Lettuce 48 hr [2, 7]: 5.0%
Percent Lepidopteran Damage to Romaine Lettuce 48 hr [2, 8]: 2.0%
Percent Lepidopteran Damage to Romaine Lettuce 48 hr [2, 9]: 12.5%
Percent Lepidopteran Damage to Romaine Lettuce 48 hr [2, 10]: 12.5%
Percent Lepidopteran Damage to Romaine Lettuce 48 hr [2, 11]: 17.5%
Percent Lepidopteran Damage to Romaine Lettuce 48 hr [2, 12]: 14.0%
Percent Lepidopteran Damage to Romaine Lettuce 48 hr [2, 13]: 9.0%
Percent Lepidopteran Damage to Romaine Lettuce 72 hr [2, 3]: 19.5%
Percent Lepidopteran Damage to Romaine Lettuce 72 hr [2, 4]: 24.5%
Percent Lepidopteran Damage to Romaine Lettuce 72 hr [2, 5]: 8.5%
Percent Lepidopteran Damage to Romaine Lettuce 72 hr [2, 6]: 18.5%
Percent Lepidopteran Damage to Romaine Lettuce 72 hr [2, 7]: 5.0%
Percent Lepidopteran Damage to Romaine Lettuce 72 hr [2, 8]: 2.0%
Percent Lepidopteran Damage to Romaine Lettuce 72 hr [2, 9]: 13.0%
Percent Lepidopteran Damage to Romaine Lettuce 72 hr [2, 10]: 12.5%
Percent Lepidopteran Damage to Romaine Lettuce 72 hr [2, 11]: 17.5%
Percent Lepidopteran Damage to Romaine Lettuce 72 hr [2, 12]: 15.0%
Percent Lepidopteran Damage to Romaine Lettuce 72 hr [2, 13]: 9.0%
